Source: patent publication US12378211B2, “Carbonic anhydrase inhibitors and antibiotics against multidrug resistant bacteria” (Purdue Research Foundation, priority 2018, dated 2025)
Converted amounts (≈) assume the structure as drawn. Like-named read-outs stand apart in the source and are kept apart here. Values belong to the compound of their own block, whether it stands above or below them.

Assays:
[1] = system: vancomycin-resistant E. faecium; test: Mouse model of GI colonization by VRE; type: in vivo, C57BL/6 mice; settings: 10 mg/kg by oral gavage for 8 days; feces as early as 3rd day
Description: Feasibility in vivo study: AZM reduces VRE load in the intestines and faeces. The promising feature, and the specific and potent antimicrobial activity of CAIs, prompted us to evaluate the in vivo efficacy of AZM in our established mouse model of GI colonization by enterococci with features that mimic the antibiotic-induced enterococcal expansion observed in humans (Mohammad, H. et al., Int J Antimicrob Agents 2018, 51, 897-904; Abdelkhalek, A, et al., PLoS One 2018, 13, e0199710). We tested AZM (two clinical doses 10 and 20 mg/kg) in female 12-week-old C57BL/6 mice (n=5 mice per group) that were sensitized with ampicillin ([…] in drinking water) for 7 days to reduce the microbiota present in the gastrointestinal tract and colonized with 10^8 CFU/mL of vancomycin-resistant E. faecium.
We thought that the rapid absorption of AZM from the gastrointestinal tract would limit their exposure time to VRE present in the gastrointestinal tract.
Mice were treated for 8 days with 10 mg/kg of drugs by oral gavage.

[2] = Preliminary in vivo toxicity study; settings: 200 mg/kg twice daily (400 mg/kg daily) for three days
[3] = system: Enterococcus faecium E417-HM-965; test: MIC, broth microdilution in TSB; type: cell-based; settings: Enterococcus faecium, E417HM965, TSB
Experimental: (§1) The minimum inhibitory concentrations (MICs) of the compounds and control drugs were determined using the broth microdilution method, according to guidelines outlined by the Clinical and Laboratory Standards Institute (CLSI). Enterococci strains were grown aerobically overnight on tryptone soya agar plates at 37° C., afterwards a bacterial solution equivalent to 0.5 McFarland standard was prepared and diluted in tryptone soy broth (TSB) to achieve a bacterial concentration of about 5×10^5 CFU/mL and seeded in 96-well well plates. Compounds and control drugs were added in the first row of the 96-well plates and serially diluted along the plates. Plates were then incubated aerobically at 37° C. for 18-20 hours. MICs reported in Table 1 are the minimum concentration of the compounds/control drugs that could inhibit completely the visual growth of the bacteria.

[4] = system: Enterococcus faecium Patient #2-1-NR-31909; test: MIC, broth microdilution in TSB; type: cell-based; settings: Enterococcus faecium, TSB
Experimental: as §1

[5] = system: MRSA NRS 384 (MRSA USA300); test: MIC against Staphylococci, broth microdilution; type: cell-based, Staphylococcus aureus; settings: Staphylococcus aureus; TSB; read-out: MIC
Experimental: as §1, with “Institute (CLSI) 1. Staphylococci” for “Institute (CLSI). Enterococci”, “Table 2” for “Table 1”

[6] = system: Staphylococcus epidermidis NRS 101; test: MIC against Staphylococci, broth microdilution; type: cell-based; settings: Staphylococcus epidermidis, NRS101; TSB; read-out: MIC
Experimental: as §1, with “Institute (CLSI) 1. Staphylococci” for “Institute (CLSI). Enterococci”, “Table 2” for “Table 1”

[7] = system: Bacteroides dorei—CL02T12C06 HM-719; test: MIC against human normal gut microbiota; type: cell-based; settings: Bacteroides; BHIS broth, anaerobic, 48 hours; read-out: MIC
Experimental: (§2) Three different bacterial strains were used in this experiment; Bifidobacterium (anaerobic Gram positive bacteria), Bacteroides (anaerobic Gram negative bacteria) and Lactobacillus (microaerophilic Gram positive bacteria). Bifidobacterium and Bacteroides were first grown for 48 hours at 37° C., anaerobically using brain heart infusion supplemented (BHIS) agar (Brain heart infusion agar supplemented with hemin, vitamin K and L-cysteine). Lactobacillus was cultivated on MRS agar and incubated in presence of 5% CO2 for 48 hours at 37° C. Each bacterium was suspended in phosphate buffered saline (PBS) to produce a suspension with optical density that matches 0.5 McFarland standard and diluted in brain heart infusion supplemented broth (for Bifidobacterium and Bacteroides) or in MRS broth (for Lactobacillus) to achieve bacterial concentration of approximately 5×10^5 CFU/ml. Bacteria were then seeded in 96-well plates containing serial dilutions of the compounds and incubated as mentioned previously for 48 hours.

[8] = system: Bacteroides fragilis—CL07T00C01 HIM-709; test: MIC against human normal gut microbiota; type: cell-based; settings: Bacteroides; BHIS broth, anaerobic, 48 hours; read-out: MIC
Experimental: as §2

[9] = system: Bifidobacterium breve—JCP7499 HIM 1120; test: MIC against human normal gut microbiota; type: cell-based; settings: Bifidobacterium; BHIS broth, anaerobic, 48 hours; read-out: MIC
Experimental: as §2

[10] = system: Bifidobacterium longum subsp. Longum—44B HM 845; test: MIC against human normal gut microbiota; type: cell-based; settings: Bifidobacterium longum; BHIS broth, anaerobic, 48 hours; read-out: MIC
Experimental: as §2

[11] = system: Lactobacillus casei ATCC 334; test: MIC against human normal gut microbiota; type: cell-based; settings: Lacticaseibacillus casei, ATCC334; MRS broth, 5% CO2, 48 hours; read-out: MIC
Experimental: as §2

[12] = system: Lactobacillus gasseri EX336960VC03 HIM-400; test: MIC against human normal gut microbiota; type: cell-based; settings: Lactobacillus gasseri; MRS broth, 5% CO2, 48 hours; read-out: MIC
Experimental: as §2

[13] = system: Mutant-2 of Enterococcus fecalis NR 31975; test: microbe, parasite or virus in culture; type: cell-based; settings: Enterococcus
[14] = system: Mutant-3 of Enterococcus fecalis NR 31975; test: microbe, parasite or virus in culture; type: cell-based; settings: Enterococcus
[15] = system: Mutant-4 of Enterococcus fecalis NR 31975; test: microbe, parasite or virus in culture; type: cell-based; settings: Enterococcus
[16] = system: Mutant-5 of Enterococcus fecalis NR 31975; test: microbe, parasite or virus in culture; type: cell-based; settings: Enterococcus
[17] = system: Mutant-6 of Enterococcus fecalis NR 31975; test: microbe, parasite or virus in culture; type: cell-based; settings: Enterococcus
[18] = system: Mutant-7 of Enterococcus fecalis NR 31975; test: microbe, parasite or virus in culture; type: cell-based; settings: Enterococcus
[19] = system: Mutant-8 of Enterococcus fecalis NR 31975; test: microbe, parasite or virus in culture; type: cell-based; settings: Enterococcus
[20] = system: Mutant-9 of Enterococcus fecalis NR 31975; test: microbe, parasite or virus in culture; type: cell-based; settings: Enterococcus
[21] = system: Mutant-11 of Enterococcus fecalis NR 31975; test: microbe, parasite or virus in culture; type: cell-based; settings: Enterococcus
[22] = system: Mutant-12 of Enterococcus fecalis NR 31975; test: microbe, parasite or virus in culture; type: cell-based; settings: Enterococcus
[23] = system: Mutant-13 of Enterococcus fecalis NR 31975; test: microbe, parasite or virus in culture; type: cell-based; settings: Enterococcus
[24] = system: Mutant-14 of Enterococcus fecalis NR 31975; test: microbe, parasite or virus in culture; type: cell-based; settings: Enterococcus
[25] = system: Mutant-15 of Enterococcus fecalis NR 31975; test: microbe, parasite or virus in culture; type: cell-based; settings: Enterococcus
[26] = system: Enterococcus faecium E417-HM-965; test: MIC of CAIs in BHIB and TSB; type: cell-based; settings: Enterococcus faecium, read-out: MIC
Experimental: (§3) The minimum inhibitory concentrations (MICs) of CAIs were tested against clinical isolates of vancomycin sensitive and vancomycin resistant Enterococci strains as per the guidelines provided by the Clinical and Laboratory Standards Institute (CLSI). The selected strains of Enterococci were streaked on Tryptic Soy Agar (TSA) plates and let grow for 24 hours at 37° C. Afterwards, a bacterial solution equivalent to 0.5 McFarland standard was prepared and diluted in tryptone soy broth (TSB) or brain heart infusion broth (BHIB) to achieve a bacterial concentration of about 5×10^5 CFU/mL and seeded in 96-well well plates. Compounds and control drugs were added in the first row of the 96-well plates and serially diluted along the plates. Plates were then incubated aerobically at 37° C. for 18-20 hours. MICs reported in Table 5 are the minimum concentration of the compounds/control drugs that could inhibit completely the visual growth of the bacteria.

[27] = system: Enterococcus faecium Patient #2-1-NR-31909; test: MIC of CAIs in BHIB and TSB; type: cell-based; settings: Enterococcus faecium, read-out: MIC
Experimental: as §3

[28] = system: Enterococcus fecalis Strain SF 24397 NR31970; test: MIC of CAIs in BHIB and TSB; type: cell-based; settings: Enterococcus, read-out: MIC
Experimental: as §3

[29] = system: Enterococcus faecalis—S613 HM-334; test: MIC of CAIs in BHIB and TSB; type: cell-based; settings: Enterococcus, read-out: MIC
Experimental: as §3, with “bacteria. The MIC values of CAIs against the tested VRE strains were higher in BHIB than in TSB. This may be due to binding of these drugs to proteins. […] They inhibited the VRE strains at MIC values ranging from 1 to 4 μg/mL.” for “bacteria.”

[30] = system: Enterococcus faecalis-S613 HM-334; test: MIC in presence of 4% human serum albumin; type: cell-based; settings: Enterococcus; TSB supplemented with 4% human serum albumin; read-out: MIC
Experimental: as §3, with “against” for “against clinical isolates of vancomycin sensitive and”, “resistant Enterococcus faecalis—S613 HM 334 strain” for “resistant Enterococci strains”, “selected strain was” for “selected strains of Enterococci were”, “(TSA) plate” for “(TSA) plates”, “(TSB) supplemented with 4% human serum albumin (HAS)” for “(TSB) or brain heart infusion broth (BHIB)”, “in table (6)” for “in Table 5”

gut microbiota = system: gut microbiota; set-up: species or system C57BL/6 mice; settings: mouse, in vivo, po, 10 mg/kg
Experimental: CAIs had no major impact on microbiota composition. An extremely promising and innovative feature of CAIs is their narrow spectrum of activity and their ability to decolonize VRE without harming the microbiome. […] To characterize the impact of CAIs administration on the composition of the gut microbiota we performed the following assay6. Female 12-week-old C57BL/6 mice (n=5 mice per group) were exposed to CAIs by oral gavage for 10 days (10 mg/kg daily). Twenty-four hours after last dose, mice were euthanized and cecal and colon contents were harvested. The microbiome was characterized using 16S rDNA gene sequencing. The microbiotas from treated mice were compared to those from a group of control mice. […] However, at the phylum level, we observed decrease in Firmicutes in CAIs treatment groups and likely due to decrease of enterococci as enterococcus is a large genus of the phylum Firmicutes. The Verrucomicrobia and Bacteroidetes remain constant while other phyla increase to fill the remaining percentage from Firmicute loss. […] Indeed, the use of traditional antibiotics can increase the selective pressure and contribute to the selection of other multi-drug-resistant organisms (Kofteridis D. et al., Int J Infect Dis 2009, 13, e313-315).

SMILES: NS(=O)(=O)c1nnc(NCc2ccccc2C(F)(F)F)s1 [analog 8, 5-((2-(trifluoromethyl)benzyl)amino)-1,3,4-thiadiazole-2-sulfonamide]
reduction of VRE in the feces, cecum and ileum [1]: superior to AZM and linezolid
signs of distress or toxicity [2]: None of the mice exhibited any signs of distress or toxicity

SMILES: CCCC(=O)Nc1nnc(S(N)(=O)=O)s1 [CAI0013, N-(5-Sulfamoyl-1,3,4-thiadiazol-2-yl) butyramide]
MIC ([3]; Table 1, read-out: MIC): 0.5 µg/mL (≈ 2 µM)
MIC ([3]; Table 7, read-out: MIC in TSB): 0.5 µg/mL (≈ 2 µM)
MIC ([4]; Table 1, read-out: MIC): 0.5 µg/mL (≈ 2 µM)
MIC ([4]; Table 7, read-out: MIC in TSB): 0.5 µg/mL (≈ 2 µM)
MIC [5]: > 64 µg/mL
MIC [6]: > 64 µg/mL
MIC [7]: > 64 µg/mL
MIC [8]: > 64 µg/mL
MIC [9]: > 64 µg/mL
MIC [10]: > 64 µg/mL
MIC [11]: > 64 µg/mL
MIC [12]: > 64 µg/mL
MIC [13]: 8 µg/mL (≈ 32 µM)
MIC [14]: 16 µg/mL (≈ 63.9 µM)
MIC [15]: 16 µg/mL (≈ 63.9 µM)
MIC [16]: 16 µg/mL (≈ 63.9 µM)
MIC [17]: 8 µg/mL (≈ 32 µM)
MIC [18]: 8 µg/mL (≈ 32 µM)
MIC [19]: 16 µg/mL (≈ 63.9 µM)
MIC [20]: 8 µg/mL (≈ 32 µM)
MIC [21]: 8 µg/mL (≈ 32 µM)
MIC [22]: 8 µg/mL (≈ 32 µM)
MIC [23]: 16 µg/mL (≈ 63.9 µM)
MIC [24]: 8 µg/mL (≈ 32 µM)
MIC [25]: 16 µg/mL (≈ 63.9 µM)

MIC ([26]; E417HM965, BHIB): 128 µg/mL
MIC ([26]; E417HM965, TSB, Table 5): 16 µg/mL
MIC ([27]; BHIB): > 128 µg/mL
MIC ([27]; TSB, Table 5): 8 µg/mL
MIC ([28]; BHIB): > 128 µg/mL
MIC ([28]; TSB, Table 5): 8 µg/mL
MIC ([29]; BHIIB): > 128 µg/mL
MIC ([29]; TSB, Table 5): 8 µg/mL
MIC [30]: > 256 µg/mL
taxonomic structure and composition of microbiota (gut microbiota): no major shift or change
SMILES: CCN[C@H]1C[C@H](C)S(=O)(=O)c2sc(S(N)(=O)=O)cc21 [Dorzolamide]
